In ChEMBL document CHEMBL3431459, “Roche carnitine palmitoyltransferase modulator screening data (supplementary data associated with the publication CHEMBL2216752)”:
pIC50: −log10 of the molar value. Values after ≈ are worked out from the molar mass of the structure shown.

Experiments:
[1] = SUPPLEMENTARY: PAMPA permeability assay; format: physicochemical; settings: read-out: Permeability
[2] = target: T1, Carnitine O-palmitoyltransferase 1, muscle isoform (Homo sapiens, UniProt Q92523); experiment: SUPPLEMENTARY: Inhibition of Carnitine palmitoyltransferase 1, muscle isoform; parameters: species or system Muscle tissue
T1 sequence (Q92523 whole entry): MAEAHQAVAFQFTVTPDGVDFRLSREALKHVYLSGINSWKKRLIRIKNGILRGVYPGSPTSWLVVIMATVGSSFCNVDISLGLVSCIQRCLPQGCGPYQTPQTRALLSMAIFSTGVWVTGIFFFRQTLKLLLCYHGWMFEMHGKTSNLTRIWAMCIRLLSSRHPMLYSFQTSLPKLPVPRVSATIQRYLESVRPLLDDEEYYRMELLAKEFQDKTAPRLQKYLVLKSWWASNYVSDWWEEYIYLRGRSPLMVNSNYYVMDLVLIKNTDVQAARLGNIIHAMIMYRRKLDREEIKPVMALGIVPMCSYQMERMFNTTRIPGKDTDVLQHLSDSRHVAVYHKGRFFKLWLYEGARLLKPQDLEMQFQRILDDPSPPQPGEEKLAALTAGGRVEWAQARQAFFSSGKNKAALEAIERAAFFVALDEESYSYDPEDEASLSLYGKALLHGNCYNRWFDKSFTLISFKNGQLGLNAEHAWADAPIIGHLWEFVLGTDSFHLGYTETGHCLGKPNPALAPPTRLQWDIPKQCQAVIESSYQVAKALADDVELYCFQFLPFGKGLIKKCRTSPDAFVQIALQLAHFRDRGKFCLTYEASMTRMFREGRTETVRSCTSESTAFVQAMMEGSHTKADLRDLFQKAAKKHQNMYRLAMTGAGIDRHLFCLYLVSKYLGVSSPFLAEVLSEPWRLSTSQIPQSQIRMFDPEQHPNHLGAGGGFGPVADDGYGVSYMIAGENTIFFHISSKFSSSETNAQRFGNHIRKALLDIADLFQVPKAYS

[3] = target: T2, Carnitine O-palmitoyltransferase 2, mitochondrial (Homo sapiens, UniProt P23786); experiment: (§1) SUPPLEMENTARY: Inhibition of Carnitine palmitoyltransferase 2
T2 sequence (P23786 whole entry): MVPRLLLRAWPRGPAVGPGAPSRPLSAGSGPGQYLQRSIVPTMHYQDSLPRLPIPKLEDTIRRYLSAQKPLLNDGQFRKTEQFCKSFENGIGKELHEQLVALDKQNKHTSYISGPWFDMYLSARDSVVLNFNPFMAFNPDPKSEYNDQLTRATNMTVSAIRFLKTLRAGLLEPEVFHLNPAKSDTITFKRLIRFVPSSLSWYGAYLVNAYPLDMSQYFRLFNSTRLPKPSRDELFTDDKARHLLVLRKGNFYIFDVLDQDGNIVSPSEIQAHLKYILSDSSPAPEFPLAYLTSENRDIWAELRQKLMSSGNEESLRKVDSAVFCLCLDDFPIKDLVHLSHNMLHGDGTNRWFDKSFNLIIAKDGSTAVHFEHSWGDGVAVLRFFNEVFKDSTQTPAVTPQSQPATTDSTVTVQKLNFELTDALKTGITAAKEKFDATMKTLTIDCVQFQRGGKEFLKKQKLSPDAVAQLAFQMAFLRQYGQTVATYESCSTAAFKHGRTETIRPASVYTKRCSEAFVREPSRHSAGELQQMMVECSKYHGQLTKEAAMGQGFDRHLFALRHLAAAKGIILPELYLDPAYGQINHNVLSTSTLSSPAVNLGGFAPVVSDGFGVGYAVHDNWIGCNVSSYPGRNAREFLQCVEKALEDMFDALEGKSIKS

[4] = target: T3, Carnitine O-palmitoyltransferase 2, mitochondrial (Rattus norvegicus, UniProt P18886); experiment: as §1
T3 sequence (P18886 whole entry): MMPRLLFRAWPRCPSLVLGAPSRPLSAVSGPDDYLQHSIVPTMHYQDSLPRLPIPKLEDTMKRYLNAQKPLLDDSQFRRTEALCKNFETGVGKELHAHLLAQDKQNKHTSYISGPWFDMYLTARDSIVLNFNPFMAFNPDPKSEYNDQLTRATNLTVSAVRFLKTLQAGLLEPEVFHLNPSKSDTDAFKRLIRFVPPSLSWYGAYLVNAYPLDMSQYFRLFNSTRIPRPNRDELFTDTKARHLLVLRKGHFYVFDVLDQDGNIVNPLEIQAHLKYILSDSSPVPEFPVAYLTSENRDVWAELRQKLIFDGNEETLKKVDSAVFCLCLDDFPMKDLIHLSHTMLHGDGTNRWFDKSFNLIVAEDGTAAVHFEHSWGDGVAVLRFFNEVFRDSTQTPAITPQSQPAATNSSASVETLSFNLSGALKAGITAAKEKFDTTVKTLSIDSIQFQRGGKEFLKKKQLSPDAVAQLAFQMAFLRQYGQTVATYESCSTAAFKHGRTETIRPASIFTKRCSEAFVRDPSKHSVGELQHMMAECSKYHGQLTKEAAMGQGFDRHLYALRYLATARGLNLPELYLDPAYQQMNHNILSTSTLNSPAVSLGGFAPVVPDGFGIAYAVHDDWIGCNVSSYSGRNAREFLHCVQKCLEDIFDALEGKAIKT

[5] = SUPPLEMENTARY: Lipophilicity (log D) Determination by high-throughput shake-flask; format: physicochemical; settings: octanol/water
[6] = SUPPLEMENTARY: Lyophilisation Solubility Assay (LYSA); format: physicochemical; settings: read-out: Kinetic_solubility
[7] = target: T4, Carnitine O-palmitoyltransferase 1, liver isoform (Rattus norvegicus, UniProt P32198); experiment: (§2) SUPPLEMENTARY: Inhibition of Carnitine palmitoyltransferase 1, liver isoform
T4 sequence (P32198 whole entry): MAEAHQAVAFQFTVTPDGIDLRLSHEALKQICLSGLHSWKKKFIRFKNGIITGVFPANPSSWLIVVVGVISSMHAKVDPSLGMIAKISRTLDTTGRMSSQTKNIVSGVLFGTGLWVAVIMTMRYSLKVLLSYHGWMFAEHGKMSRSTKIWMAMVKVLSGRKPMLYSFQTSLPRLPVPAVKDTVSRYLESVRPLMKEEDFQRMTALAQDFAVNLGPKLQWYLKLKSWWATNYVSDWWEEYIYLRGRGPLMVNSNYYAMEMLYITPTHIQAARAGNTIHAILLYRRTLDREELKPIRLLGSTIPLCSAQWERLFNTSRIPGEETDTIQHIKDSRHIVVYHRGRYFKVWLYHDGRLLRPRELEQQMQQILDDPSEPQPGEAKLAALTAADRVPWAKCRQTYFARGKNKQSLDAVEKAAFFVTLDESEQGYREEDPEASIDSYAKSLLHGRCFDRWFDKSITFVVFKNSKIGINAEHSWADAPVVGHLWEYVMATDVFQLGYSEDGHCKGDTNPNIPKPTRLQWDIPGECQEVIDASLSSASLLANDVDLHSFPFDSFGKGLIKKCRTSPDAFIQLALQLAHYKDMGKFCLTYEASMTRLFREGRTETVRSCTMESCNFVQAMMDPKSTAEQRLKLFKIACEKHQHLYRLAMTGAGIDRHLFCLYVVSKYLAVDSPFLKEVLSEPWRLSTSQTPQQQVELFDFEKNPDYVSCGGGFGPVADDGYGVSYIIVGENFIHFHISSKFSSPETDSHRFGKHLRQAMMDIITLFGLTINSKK

[8] = target: T5, Carnitine O-palmitoyltransferase 1, liver isoform (Homo sapiens, UniProt P50416); experiment: as §2
T5 sequence (P50416 whole entry): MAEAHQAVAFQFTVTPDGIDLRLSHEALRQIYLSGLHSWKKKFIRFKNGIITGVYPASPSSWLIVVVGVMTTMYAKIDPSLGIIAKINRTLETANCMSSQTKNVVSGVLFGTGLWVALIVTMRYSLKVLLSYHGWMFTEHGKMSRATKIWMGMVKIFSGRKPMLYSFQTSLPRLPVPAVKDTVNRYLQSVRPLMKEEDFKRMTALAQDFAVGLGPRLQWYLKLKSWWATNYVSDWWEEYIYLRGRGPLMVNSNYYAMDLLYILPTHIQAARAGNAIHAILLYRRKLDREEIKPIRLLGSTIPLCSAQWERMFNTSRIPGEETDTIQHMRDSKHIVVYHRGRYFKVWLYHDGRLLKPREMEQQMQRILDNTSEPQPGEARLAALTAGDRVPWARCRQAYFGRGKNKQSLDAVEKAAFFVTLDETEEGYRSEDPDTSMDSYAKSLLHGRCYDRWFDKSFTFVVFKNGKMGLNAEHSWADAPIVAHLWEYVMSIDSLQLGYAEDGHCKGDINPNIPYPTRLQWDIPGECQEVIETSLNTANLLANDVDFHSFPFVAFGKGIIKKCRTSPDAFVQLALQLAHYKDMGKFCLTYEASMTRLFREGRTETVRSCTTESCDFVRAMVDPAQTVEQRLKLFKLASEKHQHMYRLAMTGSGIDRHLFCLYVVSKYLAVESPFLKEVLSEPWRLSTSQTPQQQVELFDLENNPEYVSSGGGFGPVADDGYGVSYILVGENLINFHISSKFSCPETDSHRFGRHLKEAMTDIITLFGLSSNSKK

Structure (SMILES)	Papp [1] [×10⁻⁶ cm/s]	pIC50 [2]	pIC50 [3]	pIC50 [4]	logD [5]	solubility kinetic [6] [µg/mL]	pIC50 [7]	pIC50 [8]
CC(=O)Nc1ccc(-c2noc([C@H]3CCCCN3C(=O)C#Cc3ccccc3)n2)cc1C(F)(F)F	1.5	< 4.00	< 4.00	< 4.00	> 3	1 (≈ 2.07 µM)	5.10	6.58
O=C1CN(c2cccc(-c3nc([C@H]4CCCCN4C(=O)COc4ccccc4)no3)c2)C(=O)N1	3.43	< 4.00	4.99	4.23	2.62	127 (≈ 275 µM)	6.99	7.19
O=C1COc2ccc(-c3noc([C@H]4CCCCN4C(=O)COc4ccccc4)n3)cc2N1	3.91	4.09	4.74	< 4.00	3.04	10 (≈ 23 µM)	7.16	7.25
NC(=O)c1ccc(-c2noc([C@H]3CCCCN3C(=O)COc3ccccc3)n2)cc1	5.08	< 4.00	4.40	4.42	2.66	52 (≈ 128 µM)	6.59	7.47
COc1ccc(Cl)cc1S(=O)(=O)N1COc2c(C)cc(C(=O)Nc3ccc(C(=O)O)cc3)cc21	1.85	4.45	6.51	5.70	1.32	13 (≈ 25.8 µM)	7.10	7.11
CC(=O)Nc1cc(F)cc(-c2noc([C@H]3CCCCN3C(=O)COc3ccccc3)n2)c1	1.35	< 4.00	< 4.00	< 4.00	3.62	< 1	6.88	6.91
O=C(c1cc(-c2noc([C@H]3CCCCN3C(=O)COc3ccccc3)n2)ccn1)N1CCOCC1	5.89	< 4.00	< 4.00	4.05	1.75	> 523	6.05	7.09
COc1ccc(Cl)cc1S(=O)(=O)N1CCc2ccc(C#Cc3ccc(C(=O)O)cc3)cc21	0.26	4.09	< 4.00	< 4.00	3.3	< 1	6.95	6.95

Compounds with a higher pIC50 [2], results first:

Papp [1] [×10⁻⁶ cm/s]	pIC50 [2]	pIC50 [3]	pIC50 [4]	logD [5]	solubility kinetic [6] [µg/mL]	pIC50 [7]	pIC50 [8]	Structure (SMILES)
3.63	5.31	5.24	5.53	1.93	44 (≈ 87.2 µM)	6.92	7.47	O=C(O)c1ccc(NC(=O)c2cccc(S(=O)(=O)N3CCCc4ccc(C(F)(F)F)cc43)c2)cc1
2.24	5.87	< 4.00	< 4.00	1.3	17 (≈ 36.3 µM)	7.06	7.18	O=C(O)Cc1ccc(NC(=O)c2ccc3ccn(S(=O)(=O)c4cccc(Cl)c4)c3c2)cc1
1.45	5.45	5.29	4.68	0.12	> 716	7.00	6.61	COc1ccc(Cl)cc1S(=O)(=O)N1CCOc2ccc(C(=O)Nc3ccc(C(=O)O)c(Cl)c3)cc21
3.58	6.21	< 4.00	< 4.00	2.72	108 (≈ 190 µM)	6.88	6.91	CCCN(c1cc(C(=O)Nc2nc(CC(=O)O)cs2)cc2c1OCO2)S(=O)(=O)c1cc(Cl)ccc1OC
3.2	5.59	< 4.00	< 4.00	1.34	438 (≈ 816 µM)	6.36	6.63	COc1ccc(Cl)cc1CN(C(=O)C(C)C)c1cc(C(=O)Nc2nc(CC(=O)O)cs2)ccc1Cl
2.22	5.92	< 4.00	< 4.00	-0.06	277 (≈ 513 µM)	7.41	7.17	COc1ccc(Cl)cc1S(=O)(=O)N(C)c1cc(C(=O)Nc2ncc(CC(=O)O)s2)cc2c1OCO2
